ChEMBL document CHEMBL1201862, “PubChem BioAssay data set” (2004)
The source made the active and inactive calls.

What was measured:
[1] = target: 26S proteasome non-ATPase regulatory subunit 14 (Homo sapiens, UniProt O00487); experiment: inhibition of proteasome subunit RPN11 – biochemical, fluorescence polarization, uHTS hits, confirmation (AID 602368); assay type: functional
[2] = target: 72 kDa type IV collagenase (Homo sapiens, UniProt P08253); experiment: Dose Response validation of uHTS RPN11 inhibitor hits using a MMP-2 Fluorescence assay.; assay type: functional
Sequence of 72 kDa type IV collagenase (P08253 whole entry): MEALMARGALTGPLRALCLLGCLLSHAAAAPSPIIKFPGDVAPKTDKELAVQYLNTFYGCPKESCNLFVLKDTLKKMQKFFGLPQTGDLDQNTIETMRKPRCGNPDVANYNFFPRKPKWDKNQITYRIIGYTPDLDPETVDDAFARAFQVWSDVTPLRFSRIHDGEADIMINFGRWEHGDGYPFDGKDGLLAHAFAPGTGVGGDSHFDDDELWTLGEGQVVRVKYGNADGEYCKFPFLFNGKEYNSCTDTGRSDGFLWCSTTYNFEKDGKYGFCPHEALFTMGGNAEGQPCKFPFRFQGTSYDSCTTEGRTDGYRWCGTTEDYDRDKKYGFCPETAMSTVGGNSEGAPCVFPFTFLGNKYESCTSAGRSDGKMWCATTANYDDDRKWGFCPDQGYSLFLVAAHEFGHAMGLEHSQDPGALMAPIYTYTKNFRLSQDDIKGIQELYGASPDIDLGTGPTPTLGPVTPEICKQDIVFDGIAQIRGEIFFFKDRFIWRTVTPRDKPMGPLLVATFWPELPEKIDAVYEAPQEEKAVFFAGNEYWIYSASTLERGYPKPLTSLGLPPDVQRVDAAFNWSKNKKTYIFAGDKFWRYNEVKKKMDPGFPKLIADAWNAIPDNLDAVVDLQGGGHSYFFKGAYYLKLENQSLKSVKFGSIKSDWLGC

Prothrombin = Prothrombin (Bos taurus, UniProt P00735); experiment: thrombin protease inhibitors – biochemical, fluorescence polarization, uHTS hits, dose response (AID 602369); assay type: functional
[3] = target: T1, High affinity choline transporter 1 (Homo sapiens, UniProt Q9GZV3); experiment: human choline transporter blockers, potency – cell-based, 5-point CRC, membrane potential dye, dose response (AID 504840); assay type: functional
T1 sequence (Q9GZV3 whole entry): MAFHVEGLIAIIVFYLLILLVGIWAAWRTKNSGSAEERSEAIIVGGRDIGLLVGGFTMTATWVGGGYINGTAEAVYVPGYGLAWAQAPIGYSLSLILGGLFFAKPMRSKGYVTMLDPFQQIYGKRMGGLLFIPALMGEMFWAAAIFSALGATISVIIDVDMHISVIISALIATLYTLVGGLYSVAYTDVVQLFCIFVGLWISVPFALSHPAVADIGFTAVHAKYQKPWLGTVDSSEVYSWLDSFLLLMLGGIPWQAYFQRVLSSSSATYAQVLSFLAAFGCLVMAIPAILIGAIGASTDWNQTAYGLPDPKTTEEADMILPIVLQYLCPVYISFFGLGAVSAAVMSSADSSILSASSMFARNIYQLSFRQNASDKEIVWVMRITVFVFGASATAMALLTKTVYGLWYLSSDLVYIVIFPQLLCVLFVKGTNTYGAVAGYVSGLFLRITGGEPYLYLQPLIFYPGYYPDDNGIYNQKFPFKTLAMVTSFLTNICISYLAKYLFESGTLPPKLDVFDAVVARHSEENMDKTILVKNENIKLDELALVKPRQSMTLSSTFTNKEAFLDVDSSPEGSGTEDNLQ

Leucine aminopeptidase = target: T2, Leucine aminopeptidase (Plasmodium falciparum 3D7, UniProt Q8IL11); experiment: P. falciparum M17LAP inhibitors, primary screen, biochemical, fluorogenic H-Leu-NHMec substrate, 1536-well (AID 1619); assay type: functional
T2 sequence (Q8IL11 whole entry): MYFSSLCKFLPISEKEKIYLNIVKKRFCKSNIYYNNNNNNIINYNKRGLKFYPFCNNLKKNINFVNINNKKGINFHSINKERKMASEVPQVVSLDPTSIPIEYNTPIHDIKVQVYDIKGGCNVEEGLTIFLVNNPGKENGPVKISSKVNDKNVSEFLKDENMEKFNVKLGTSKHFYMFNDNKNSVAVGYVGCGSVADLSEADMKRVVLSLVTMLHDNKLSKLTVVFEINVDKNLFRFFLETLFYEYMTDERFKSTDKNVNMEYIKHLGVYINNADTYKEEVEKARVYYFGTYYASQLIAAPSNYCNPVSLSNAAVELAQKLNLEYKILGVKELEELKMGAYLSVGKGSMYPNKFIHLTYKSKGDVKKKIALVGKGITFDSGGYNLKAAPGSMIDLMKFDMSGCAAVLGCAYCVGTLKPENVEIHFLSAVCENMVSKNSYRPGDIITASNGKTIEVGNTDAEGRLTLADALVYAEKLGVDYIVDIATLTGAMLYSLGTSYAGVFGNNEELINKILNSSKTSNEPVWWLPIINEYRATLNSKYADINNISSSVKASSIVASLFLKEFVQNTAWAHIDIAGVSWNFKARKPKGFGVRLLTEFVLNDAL

[4] = target: T3, Polyadenylate-binding protein 1 (Homo sapiens, UniProt P11940); experiment: MLLE binding blockers, Cy5 peptide tracer – biochemical, fluorescence polarization, Cy5-PAM2 peptide, secondary, miRNA deadenylation inhibitor project, dose response (AID 602260); assay type: functional; settings: read-out: IC50_Mean
T3 sequence (P11940 whole entry, the tested form may be a part): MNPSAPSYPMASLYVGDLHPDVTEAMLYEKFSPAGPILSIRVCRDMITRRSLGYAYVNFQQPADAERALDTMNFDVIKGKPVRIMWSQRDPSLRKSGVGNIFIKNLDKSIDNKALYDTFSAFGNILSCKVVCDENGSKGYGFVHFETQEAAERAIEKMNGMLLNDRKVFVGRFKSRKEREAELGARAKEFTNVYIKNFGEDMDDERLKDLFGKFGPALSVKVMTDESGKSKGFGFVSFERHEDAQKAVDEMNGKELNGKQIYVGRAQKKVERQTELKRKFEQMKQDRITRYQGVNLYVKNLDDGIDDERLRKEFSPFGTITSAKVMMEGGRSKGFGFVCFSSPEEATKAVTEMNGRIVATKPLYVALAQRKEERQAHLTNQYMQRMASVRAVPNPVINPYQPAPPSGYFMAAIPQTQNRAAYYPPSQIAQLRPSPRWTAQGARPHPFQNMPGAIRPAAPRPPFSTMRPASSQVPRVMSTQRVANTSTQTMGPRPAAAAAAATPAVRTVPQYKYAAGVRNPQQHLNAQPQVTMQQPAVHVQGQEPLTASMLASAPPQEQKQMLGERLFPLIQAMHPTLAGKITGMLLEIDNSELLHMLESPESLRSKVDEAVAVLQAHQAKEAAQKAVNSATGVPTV

[5] = target: T3, Polyadenylate-binding protein 1; experiment: MLLE domain peptide-binding blockers, IC50 – biochemical, fluorescence polarization, FITC-PAM2 peptide, dose response (AID 602259); assay type: functional; settings: read-out: IC50_Mean
Beta-galactosidase = Beta-galactosidase (Escherichia coli, UniProt Q8VNN2); experiment: Dose response counterscreen for EBI2 assay utilizing the enzyme, b-galactosidase.; assay type: functional
Sequence of Beta-galactosidase (Q8VNN2 whole entry): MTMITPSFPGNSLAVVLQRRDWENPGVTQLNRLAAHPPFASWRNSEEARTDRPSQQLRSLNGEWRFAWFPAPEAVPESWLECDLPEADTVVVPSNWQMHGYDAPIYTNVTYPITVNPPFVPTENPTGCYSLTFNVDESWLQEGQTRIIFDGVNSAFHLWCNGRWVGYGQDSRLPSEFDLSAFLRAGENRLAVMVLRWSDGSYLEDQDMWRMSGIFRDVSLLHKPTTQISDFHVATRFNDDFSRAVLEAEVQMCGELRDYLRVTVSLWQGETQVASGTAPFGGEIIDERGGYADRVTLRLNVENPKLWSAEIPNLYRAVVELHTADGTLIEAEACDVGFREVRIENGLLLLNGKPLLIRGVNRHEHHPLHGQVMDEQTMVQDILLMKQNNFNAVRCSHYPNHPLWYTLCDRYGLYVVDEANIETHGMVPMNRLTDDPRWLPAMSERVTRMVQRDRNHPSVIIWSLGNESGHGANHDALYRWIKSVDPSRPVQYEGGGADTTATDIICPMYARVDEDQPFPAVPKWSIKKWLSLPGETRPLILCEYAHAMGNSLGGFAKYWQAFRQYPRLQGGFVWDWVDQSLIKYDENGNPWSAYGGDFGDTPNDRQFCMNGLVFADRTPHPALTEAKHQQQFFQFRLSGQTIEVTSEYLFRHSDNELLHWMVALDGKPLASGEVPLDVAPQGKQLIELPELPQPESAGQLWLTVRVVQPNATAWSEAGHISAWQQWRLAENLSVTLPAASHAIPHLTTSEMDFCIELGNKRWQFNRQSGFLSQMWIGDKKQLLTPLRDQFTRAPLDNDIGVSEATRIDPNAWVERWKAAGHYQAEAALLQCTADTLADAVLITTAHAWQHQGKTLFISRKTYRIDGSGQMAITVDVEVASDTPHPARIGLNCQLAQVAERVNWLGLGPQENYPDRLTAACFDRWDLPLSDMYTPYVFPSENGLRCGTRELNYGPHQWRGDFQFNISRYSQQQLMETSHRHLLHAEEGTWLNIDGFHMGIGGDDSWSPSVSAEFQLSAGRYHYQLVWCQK

[6] = target: T4, Small ubiquitin-related modifier 1 (Homo sapiens, UniProt P63165); experiment: SUMO1 protein interaction blockers, potency – biochemical, fluorescence polarization, uHTS hits, dose response (AID 624382); assay type: functional; settings: read-out: IC50_Mean
T4 sequence (P63165 whole entry): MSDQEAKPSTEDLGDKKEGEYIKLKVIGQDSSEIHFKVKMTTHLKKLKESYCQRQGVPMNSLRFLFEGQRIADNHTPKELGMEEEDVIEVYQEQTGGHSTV

[7] = target: T4, Small ubiquitin-related modifier 1; experiment: SUMO1 protein-protein binding blockers, potency – biochemical, FRET, dose response (AID 624383); assay type: functional; settings: read-out: IC50_Mean
Large T antigen = Large T antigen (Simian virus 40, UniProt P03070); assay type: functional, Betapolyomavirus macacae;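 note: Confirmatory-stage PubChem screen for compounds that inhibit SV40 T antigen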
Sequence of Large T antigen (P03070 whole entry): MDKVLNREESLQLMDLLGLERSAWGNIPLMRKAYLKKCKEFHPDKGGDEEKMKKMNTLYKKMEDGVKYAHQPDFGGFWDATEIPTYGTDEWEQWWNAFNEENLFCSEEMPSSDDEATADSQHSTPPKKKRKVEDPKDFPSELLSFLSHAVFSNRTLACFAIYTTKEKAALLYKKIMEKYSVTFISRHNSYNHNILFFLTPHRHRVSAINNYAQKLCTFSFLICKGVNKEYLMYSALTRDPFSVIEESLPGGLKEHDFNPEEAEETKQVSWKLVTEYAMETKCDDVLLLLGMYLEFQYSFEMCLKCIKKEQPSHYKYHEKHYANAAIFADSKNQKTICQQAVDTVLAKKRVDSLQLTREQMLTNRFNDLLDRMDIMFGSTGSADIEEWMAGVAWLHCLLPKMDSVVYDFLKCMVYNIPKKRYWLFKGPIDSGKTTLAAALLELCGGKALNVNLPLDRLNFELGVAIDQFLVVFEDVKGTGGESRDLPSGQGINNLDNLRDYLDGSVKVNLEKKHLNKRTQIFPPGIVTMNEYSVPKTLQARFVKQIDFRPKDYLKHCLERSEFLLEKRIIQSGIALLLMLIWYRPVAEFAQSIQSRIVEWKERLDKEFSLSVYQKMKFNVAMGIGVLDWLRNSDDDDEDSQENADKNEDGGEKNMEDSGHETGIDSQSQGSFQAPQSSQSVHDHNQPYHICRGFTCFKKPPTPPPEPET

[8] = target: Induced myeloid leukemia cell differentiation protein Mcl-1 (Homo sapiens, UniProt Q07820); assay type: functional
Sequence of Induced myeloid leukemia cell differentiation protein Mcl-1 (Q07820 whole entry): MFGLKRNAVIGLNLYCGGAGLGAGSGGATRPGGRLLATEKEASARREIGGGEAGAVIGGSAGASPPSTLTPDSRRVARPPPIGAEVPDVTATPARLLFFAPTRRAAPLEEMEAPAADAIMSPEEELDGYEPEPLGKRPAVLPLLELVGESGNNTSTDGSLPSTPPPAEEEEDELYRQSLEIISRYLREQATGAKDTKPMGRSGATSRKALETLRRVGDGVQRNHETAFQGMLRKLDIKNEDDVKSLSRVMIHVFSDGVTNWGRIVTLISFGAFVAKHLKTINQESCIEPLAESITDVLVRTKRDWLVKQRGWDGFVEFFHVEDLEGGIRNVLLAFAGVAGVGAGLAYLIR

[9] = target: FAD-linked sulfhydryl oxidase ALR (Homo sapiens, UniProt P55789); experiment: ALR-catalysed DTT oxidation blockers – biochemical, H2O2 detection, luminescence, cherry-pick, dose response (AID 493248)
Sequence of FAD-linked sulfhydryl oxidase ALR (P55789 whole entry): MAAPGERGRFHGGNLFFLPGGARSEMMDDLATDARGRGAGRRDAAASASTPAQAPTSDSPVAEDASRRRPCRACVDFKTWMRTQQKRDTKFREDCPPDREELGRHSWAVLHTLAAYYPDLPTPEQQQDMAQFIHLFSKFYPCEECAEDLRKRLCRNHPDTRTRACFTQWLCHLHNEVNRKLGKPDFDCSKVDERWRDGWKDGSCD

[10] = target: T5, Probable nicotinate-nucleotide adenylyltransferase (Staphylococcus aureus (strain N315), UniProt P65502); assay type: functional, Staphylococcus aureus subsp. aureus N315;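 for IC50 Mean: confirmatory dose-response retesting of NadD inhibitor hits first found in an ultra-high-throughput screen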
T5 sequence (P65502 whole entry): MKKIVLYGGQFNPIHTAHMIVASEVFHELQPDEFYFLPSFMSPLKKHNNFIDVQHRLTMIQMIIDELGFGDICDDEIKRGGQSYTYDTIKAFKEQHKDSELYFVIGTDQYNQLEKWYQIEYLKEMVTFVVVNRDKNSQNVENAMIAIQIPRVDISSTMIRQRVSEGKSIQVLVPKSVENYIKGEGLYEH

[11] = target: T5, Probable nicotinate-nucleotide adenylyltransferase; assay type: functional, Staphylococcus aureus subsp. aureus N315; settings: read-out: IC50_Mean
Paired box protein Pax-8 = Paired box protein Pax-8 (Homo sapiens, UniProt Q06710); experiment: PAX8 transcriptional activity inhibition in RMG-I – RMG-I cells, luciferase, cherry-pick, dose response (AID 687027); assay type: functional, cell-based;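 note: luciferase reporter driven by Pax8 target thyroperoxidase promoter measured by SteadyGlo luminescence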
Sequence of Paired box protein Pax-8 (Q06710 whole entry): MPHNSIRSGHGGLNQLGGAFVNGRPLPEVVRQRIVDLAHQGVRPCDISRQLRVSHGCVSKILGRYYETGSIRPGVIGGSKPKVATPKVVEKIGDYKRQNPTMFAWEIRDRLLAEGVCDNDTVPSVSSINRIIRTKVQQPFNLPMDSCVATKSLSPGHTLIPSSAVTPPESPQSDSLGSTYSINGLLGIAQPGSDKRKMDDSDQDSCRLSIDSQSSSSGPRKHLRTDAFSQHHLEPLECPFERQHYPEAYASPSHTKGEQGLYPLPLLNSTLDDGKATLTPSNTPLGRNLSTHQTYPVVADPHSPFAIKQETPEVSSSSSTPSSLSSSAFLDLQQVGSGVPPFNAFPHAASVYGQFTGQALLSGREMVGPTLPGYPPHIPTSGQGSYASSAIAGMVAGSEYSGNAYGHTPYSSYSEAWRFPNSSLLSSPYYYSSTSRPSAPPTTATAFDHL

Sequence of 26S proteasome non-ATPase regulatory subunit 14 (O00487 whole entry): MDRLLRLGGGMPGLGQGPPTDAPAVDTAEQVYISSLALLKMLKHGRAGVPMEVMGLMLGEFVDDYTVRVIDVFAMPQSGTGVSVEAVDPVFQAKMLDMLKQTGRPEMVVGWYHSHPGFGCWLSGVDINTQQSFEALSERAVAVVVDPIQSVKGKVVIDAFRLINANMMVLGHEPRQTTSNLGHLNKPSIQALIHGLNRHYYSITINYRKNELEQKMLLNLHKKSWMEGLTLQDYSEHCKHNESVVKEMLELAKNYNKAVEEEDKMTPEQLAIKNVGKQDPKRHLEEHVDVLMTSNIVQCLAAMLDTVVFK

SMILES: NC(=O)CC(NC(=O)c1ccc(Br)cc1)c1ccc(NC2CCCCCC2)c([N+](=O)[O-])c1 (centres undefined)
- IC50 [1]: 31.6 µM (active)
- IC50 [2]: > 100 µM (inactive)
- IC50 (Prothrombin): 88.5 µM (active)

SMILES: CC(C)(C)NC(=O)NC(=O)CN1CCC(Cc2ccccc2)CC1
- IC50 [3]: 12 µM (active)

SMILES: COc1ccc(NC(=O)CSc2nc(O)c(Cc3ccccc3)c(=O)[nH]2)cc1
- IC50 (Leucine aminopeptidase): 10.2 µM (active)
- IC50 [4]: > 66 µM (inactive)
- IC50 [5]: > 66 µM (inactive)

SMILES: Cc1ccc(Oc2ncc(-c3ccc(Cl)cc3)cn2)cc1
- IC50 (Beta-galactosidase): > 80 µM (inactive)

SMILES: NC(=O)c1ccc2c(=O)n3c(-c4cc(Cl)c(N)c(Cl)c4)csc3nc2c1
- IC50 [6]: > 66.6 µM (inactive)
- IC50 [7]: 13.4 µM (active)

SMILES: C=CCN(CC=C)S(=O)(=O)c1ccc2nc(NC(=O)C(C)C)sc2c1
- IC50 [3]: 13.8 µM (active)

SMILES: COc1cc(C(=O)Nc2ccc(N(C)C)cc2)cc(OC)c1OC
- IC50 (Large T antigen): 6.34 µM (active)
- IC50 [8]: 4.78 µM (not active)
- AC50 [9]: 1.31 µM (active)

SMILES: COc1ccc(/C=C2/C(=O)NC(=S)N(C3CC3)C2=O)cc1CN1C(=O)c2ccccc2C1=O
- IC50 (Large T antigen): 48.5 µM (active)
- IC50 [8]: 5.54 µM (active)

SMILES: O=c1[nH][nH]c(=O)c2cc(N3CCCC3)ccc12
- IC50 (Leucine aminopeptidase): 70.7 µM (active)

SMILES: N#CC1=C(S)N=C(N)C(c2nc(-c3ccccc3)cs2)C12CCCCC2 (centres undefined)
- IC50 [10]: 10.4 µM (active)
- IC50 [11]: 23.2 µM (active)

SMILES: CCSc1nnc(NC(=O)C2CC=CCC2C(=O)O)s1 (centres undefined)
- IC50 (Leucine aminopeptidase): 19.9 µM (active)

SMILES: N#C/C(=C\c1ccccc1)C(=O)Nc1cc(S(=O)(=O)N2CCOCC2)ccc1N1CCCC1
- IC50 (Beta-galactosidase): > 80 µM (inactive)

SMILES: Cc1cc(C)c(NC(=O)CCCCCNC2CCCCC2)c(C)c1
- IC50 [3]: 12.6 µM (active)

SMILES: CCOC(=O)/C=C/C(=O)Nc1cc(S(=O)(=O)Nc2ccc(OC)cc2)ccc1N1CCOCC1
- IC50 (Beta-galactosidase): > 80 µM (inactive)
- AC50 (Paired box protein Pax-8): 5.42 µM (active)
